From article PMC4949396, “The effects of apremilast on the QTc interval in healthy male volunteers: a formal, thorough QT study” (International Journal of Clinical Pharmacology and …, 2016)
pIC50: −log10 of the molar value. Read-outs that look alike come from different tables or passages of the source. Marks after values point to notes of the source that are not given here. Values belong to the compound of their own block, whether it stands above or below them.

Tests used:
[1] = plasma pharmacokinetics on day 5 after multiple oral doses of apremilast in healthy male subjects; assay type: in vivo, human; details: for AUC / AUC0–τ, geometric mean (geometric CV%): τ 12 hours; for AUC: read-out: AUC0–τ, geometric mean (geometric CV%); for Tmax: read-out: tmax, median (minimum–maximum)
Protocol: PK parameters were derived using noncompartmental methods with WinNonlin® Professional version 5.1.2 (Pharsight Corporation, Mountain View, CA, USA). […] For determination of PK parameters (terminal elimination rate constant (Kel), time to maximum plasma concentration (tmax), and terminal half-life (t1/2)), plasma concentrations for apremilast and its major metabolites below the limit of quantitation (BLQ) were treated as missing except for the calculation of area under the plasma concentration-time curve (AUC). To calculate AUC, BLQ or missing concentrations in the beginning and end of profile were replaced with zero, and BLQ or missing concentrations in the middle of the profile were interpolated.
Blood samples were collected in lithium heparin tubes and plasma was separated. The plasma samples, fortified with Sorensen’s buffer (25 mM citrate, pH 1.5) containing amastatin 20 µM (1 : 1/v : v), were analyzed by two validated liquid chromatography/tandem mass spectrometry methods, one for determination of apremilast and the other for its metabolites M12 (CC-16166), M14 (CC-16793), and M16 (CC-16557).

[2] = system: healthy male subjects; assay: safety assessments (adverse events, vital signs, laboratory tests); assay type: in vivo, human; details: up to doses of 50 mg twice daily
Protocol: Safety assessments were performed at clinic check-in, periodically throughout each treatment period, and at the end-of-study visit and included the measurement of vital signs, recording of standard 12-lead ECGs, collection of samples for clinical laboratory tests, and physical examinations. Adverse events (AEs) and concomitant medication use were assessed and recorded throughout the study.

[3] = system: healthy male subjects; assay: exploratory PK/PD relationship between ΔΔQTcI and plasma concentration (linear mixed-effect model); assay type: in vivo, human; details: for relationship between changes in QT/QTc interval and plasma concentration: in vivo; for estimated slope (SE) of ΔΔQTcI vs plasma concentration: linear regression, random effect model, pooled doses
Protocol: The PK/PD analysis was performed using a linear mixed-effect model to explore the relationship between the ΔΔQTcI and plasma concentrations for apremilast, M12, M14, and M16, and to estimate the population slope (β) and standard error of slope (SEβ). The expected maximum ΔΔQTcI effect for each dose and each analyte was estimated using the slope and average Cmax with one-sided upper limit 95% CIs.

[4] = parameters: method as in PMID 26097790; details: 30 mg b.i.d., cited from earlier work
[5] = target: T1, hERG potassium channel (Homo sapiens, UniProt Q12809); assay: voltage-clamp study of hERG current in HEK293 cells expressing hERG; assay type: cell-based
T1 construct: expressed in transfected cells; host or cells: HEK-293 cells stably expressing hERG
T1 sequence (Q12809 whole entry): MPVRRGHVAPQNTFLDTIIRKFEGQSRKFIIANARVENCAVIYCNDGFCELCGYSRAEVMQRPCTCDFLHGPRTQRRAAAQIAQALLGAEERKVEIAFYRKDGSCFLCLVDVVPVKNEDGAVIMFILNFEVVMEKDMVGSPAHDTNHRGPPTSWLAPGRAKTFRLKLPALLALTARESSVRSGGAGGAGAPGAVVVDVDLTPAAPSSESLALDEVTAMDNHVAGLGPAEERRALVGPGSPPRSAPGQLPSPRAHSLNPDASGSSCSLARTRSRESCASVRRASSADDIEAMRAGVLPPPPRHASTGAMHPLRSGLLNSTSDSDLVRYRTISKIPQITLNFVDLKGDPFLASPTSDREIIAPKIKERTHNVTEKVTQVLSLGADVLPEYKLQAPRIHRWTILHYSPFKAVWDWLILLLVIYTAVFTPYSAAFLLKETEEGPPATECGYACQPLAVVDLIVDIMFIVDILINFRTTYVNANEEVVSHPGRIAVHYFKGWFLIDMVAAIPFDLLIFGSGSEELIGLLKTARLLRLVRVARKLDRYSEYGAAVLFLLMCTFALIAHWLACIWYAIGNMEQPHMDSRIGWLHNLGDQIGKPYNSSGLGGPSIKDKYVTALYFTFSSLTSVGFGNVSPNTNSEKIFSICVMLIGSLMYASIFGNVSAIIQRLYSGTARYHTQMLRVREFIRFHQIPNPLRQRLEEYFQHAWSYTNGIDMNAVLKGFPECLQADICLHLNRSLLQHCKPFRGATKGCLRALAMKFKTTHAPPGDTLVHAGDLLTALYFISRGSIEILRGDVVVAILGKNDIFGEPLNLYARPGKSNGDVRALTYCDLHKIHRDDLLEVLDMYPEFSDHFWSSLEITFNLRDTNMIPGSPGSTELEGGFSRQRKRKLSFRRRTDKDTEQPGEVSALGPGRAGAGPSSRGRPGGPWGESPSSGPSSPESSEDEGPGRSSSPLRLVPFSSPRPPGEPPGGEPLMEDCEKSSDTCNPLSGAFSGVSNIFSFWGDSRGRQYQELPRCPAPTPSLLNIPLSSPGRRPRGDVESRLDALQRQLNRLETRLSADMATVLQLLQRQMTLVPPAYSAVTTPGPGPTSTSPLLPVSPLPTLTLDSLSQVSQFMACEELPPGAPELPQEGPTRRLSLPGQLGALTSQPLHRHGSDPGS
Text: This IC50 value is > 2 orders of magnitude greater than the maximum plasma concentration (Cmax) values observed in healthy male subjects and in PsA or rheumatoid patients at the highest doses studied. Prolongation of the QT interval is associated with a rare but dangerous ventricular arrhythmia, torsade de pointes, and drug-induced prolongation of the QT interval represents a significant risk. The current study was undertaken to provide definitive evaluation of the clinical potential for prolongation of the QT interval with apremilast.
Furthermore, a structure-activity relationship study has shown that the structure of a PDE4 inhibitor can be optimized for high-potency PDE4 inhibition and minimize or eliminate its affinity for hERG channel by targeted modification of pharmacophores. The structure of apremilast was optimized for PDE4 inhibition and minimal affinity for the hERG channel.

[6] = system: healthy male subjects; assay: thorough QT/QTc study, 24-hour digital Holter ECG (QTc, HR, PR); details: for decrease of time-matched, baseline-adjusted LS mean PR interval (ΔΔPR): 2 hours postdose; for effect on the QT/QTc interval: overall conclusion of the study
Protocol: This was a single-center, randomized, crossover study with 4 treatments, 4 periods, and 4 sequences conducted in healthy male subjects. Apremilast (Otezla; Celgene Corporation, Summit, NJ, USA) was administered in a double-blind manner with matching placebo, and moxifloxacin was administered in an open-label manner. The core central electrocardiogram (ECG) laboratory staff, including those reading the ECGs, was blinded to treatment, sequence time, and subject identifiers.
The 4 treatments evaluated in this study included an apremilast-matched placebo administered twice daily (b.i.d.) for 9 doses (~ 5 days), a clinically relevant dose of apremilast 30 mg administered b.i.d. for 9 doses, a supratherapeutic dose of apremilast 50 mg administered b.i.d. for 9 doses, and placebo administered on days 1 – 4 followed by a single dose of moxifloxacin 400 mg on day 5. Subjects fasted for at least 8 hours before the morning dose or before the start of Holter monitoring on days –1 and 5.
ECGs were analyzed for ventricular HR, PR, QRS, RR, and QT intervals and morphological changes. Mean of the triplicate ECGs at each nominal time point was used for all reporting and analysis; however, individual values were used to calculate the correction coefficient (γ) for QTcI. The QTc corrections were individual correction by QTcI = QT/RR^γ, Fridericia’s by QTcF = QT/RR^0.33, and Bazett’s by QTcB = QT/RR^0.5. Individual correction coefficient, γ, was estimated using linear regression of log QT on log RR for each subject using all baseline ECG assessments collected before day 1 dosing in period 1 within a subject. Change from baseline was calculated as the average of the three predose assessments on day 1 of the corresponding treatment period subtracted from the value (i.e., QTc) on day 5 at a given time t. Double-delta (ΔΔ) values for various cardiac parameters (i.e., ΔΔQTcI, ΔΔQTcB, etc.) were determined as the change from baseline value relative to placebo at the same scheduled time.
At each time point, difference in least-squares (LS) means was estimated between the LS means of each apremilast dose and placebo (with placebo as reference). Two-sided 90% confidence intervals (CIs) were produced for the comparisons.
The effect of QTcI for moxifloxacin was assessed at 1, 1.5, 2, 3, and 4 hours postdose to assess assay sensitivity. At each time point, the ΔΔ value was estimated between the LS means of moxifloxacin and placebo. […] If at least one of the CIs completely exceeded 5 ms, then the assay was declared sensitive.
For secondary analyses, a Student’s t-test was performed comparing each dose of apremilast vs. placebo and between moxifloxacin and placebo at each time point. Two-sided 90% CIs were produced for the comparisons. The effect of apremilast on QTcF, QTcB, HR, PR, and QT was assessed using the same linear mixed model from the primary analysis. […] The model included treatment group, period, sequence, and baseline ECG interval as a covariate, and subject nested within sequence as a random effect.
If a subject experienced > 1 episode of a particular outlier event, the subject was counted only once for that event.

[7] = parameters: method as in PMID 21859393; details: cited from earlier work
[8] = apremilast 50 mg b.i.d., day 5, plasma
[9] = male, human, oral, apremilast 30 mg b.i.d., day 5, plasma
[10] = male, human, oral, apremilast 50 mg b.i.d., day 5, plasma
[11] = patients with rheumatoid arthritis or PsA, n = 15
[12] = both apremilast doses, all time points
[13] = both apremilast doses, all values
[14] = apremilast 30 mg b.i.d., day 5, plasma

increase of AUC with increasing dose ([1]; 50 mg b.i.d. vs 30 mg b.i.d.): ~ 1.5 times
increase of Cmax with increasing dose ([1]; 50 mg b.i.d. vs 30 mg b.i.d.): ~ 1.4 times
t1/2, geometric mean (geometric CV%) [1, 8]: 7.28 (29.1) h
AUC [1, 9]: 2260 ng·h/mL
half-life ([1]; male, human, oral, apremilast 30 mg b.i.d., day 5, plasma, read-out: t1/2, geometric mean (geometric CV%) (converted)): 6.41 h
Tmax [1, 9]: 2 h
AUC [1, 10]: 3450 ng·h/mL
Tmax [1, 10]: 2 h
Cmax ([1]; male, human, plasma, oral, 30 mg, apremilast 30 mg b.i.d., day 5, plasma, read-out: Cmax, geometric mean (geometric CV%)): 352 ng/mL
Cmax ([1]; male, human, plasma, oral, 50 mg, apremilast 50 mg b.i.d., day 5, plasma, read-out: Cmax, geometric mean (geometric CV%)): 507 ng/mL
Cmax ([1]; male, human, plasma, oral, 50 mg, healthy subjects, 50 mg b.i.d., read-out: maximum Cmax): 1060 ng/mL
half-life ([1]; male, human, plasma, oral, across both doses (30 and 50 mg b.i.d.), read-out: mean t1/2): 6 to 7 h
AUC(0-t) ([1]; male, human, plasma, oral, healthy subjects, 50 mg b.i.d., read-out: maximum AUC0–12): 9350 ng·h/mL
estimated slope (SE) of ΔΔQTcI vs plasma concentration [3]: –0.0016 (0.0027)
Compound: CCOc1cc([C@@H](CS(C)(=O)=O)N2C(=O)c3cccc(NC(C)=O)c3C2=O)ccc1OC [apremilast, (S)-N-[2-[1-(3-ethoxy-4-methoxyphenyl)-2-methanesulfonylethyl]-1,3-dioxo-2,3-dihydro-1H-isoindol-4-yl] acetamide]
safety and tolerability [2]: safe and well tolerated
relationship between changes in QT/QTc interval and plasma concentration [3]: No trend or relationship
maximum AUC0–12 ([4]; PsA and psoriasis patients): 8,280 ng×h/mL
maximum Cmax ([4]; PsA and psoriasis patients): 981 ng/mL
geometric mean Cmax [4, 11]: 554 ng/mL
mean AUC0–12 [4, 11]: 3,670 ng×h/mL
Hill coefficient of hERG current inhibition ([5]; HEK293 cells expressing hERG): 0.9
pIC50 ([5]; HEK293 cells expressing hERG, read-out: hERG current inhibition, estimated half maximal inhibitory concentration (IC50)): 3.73
IC50 ([5]; HEK293 cells expressing hERG, same value in mass units, read-out: hERG current inhibition, estimated IC50 (converted)): 184 µM
affinity for the hERG channel ([5]; voltage-clamp, HEK-293 cells stably expressing hERG): low affinity
hERG IC50 relative to Cmax at the highest doses studied ([5]; vs Cmax in healthy male subjects and PsA or rheumatoid patients): > 2 orders of magnitude
LS mean ΔΔQTcI ([6]; apremilast 30 mg b.i.d., day 5, all time points): –4.2 to 0.7 ms
increase of time-matched, baseline-adjusted LS mean HR (ΔΔHR) ([6]; apremilast 30 mg dose, 2 hours after administration): 3.1 bpm
decrease of time-matched, baseline-adjusted LS mean PR interval (ΔΔPR) ([6]; apremilast 30 mg dose): 2.8 ms
decrease of time-matched, baseline-adjusted LS mean PR interval (ΔΔPR) ([6]; apremilast 50 mg dose): 3.5 ms
increase of time-matched, baseline-adjusted LS mean HR (ΔΔHR) ([6]; apremilast 50 mg dose, 3 hours after administration): 4.4 bpm
LS mean ΔΔQTcI ([6]; both apremilast doses (30 and 50 mg b.i.d.), all time points): < 1 ms
upper limit of two-sided 90% CI of ΔΔQTcB [6, 12]: below 10 ms
upper limit of two-sided 90% CI of ΔΔQTcF [6, 12]: below 10 ms
LS mean ΔΔQTcB [6, 13]: < 5 ms
LS mean ΔΔQTcF [6, 13]: < 1 ms
subjects with maximum on-treatment QT/QTc interval > 480 ms or change from baseline > 60 ms ([6]; categorical analysis, while receiving apremilast): No subject
effect on the QT/QTc interval [6]: did not prolong the QT interval
half-life ([7]; humans): 6 to 9 h

Compound: COc1c(N2C[C@@H]3CCCN[C@@H]3C2)c(F)cc2c(=O)c(C(=O)O)cn(C3CC3)c12 [moxifloxacin]
effect on the QT/QTc interval [6]: significantly increased the QT/QTc interval

t1/2, geometric mean (geometric CV%) [1, 14]: 12.18 (25.9)^c h
tmax, median (minimum–maximum) [1, 14]: 3.0 (1.0 – 12.0) h
AUC0–τ, geometric mean (geometric CV%) [1, 14]: 3,930 (23.9) ng×h/mL
Cmax, geometric mean (geometric CV%) [1, 8]: 659.1 (21.0) ng/mL
t1/2, geometric mean (geometric CV%) [1, 8]: 12.79 (29.0)^e h
tmax, median (minimum–maximum) [1, 8]: 3.0 (0.5 – 6.0) h
AUC0–τ, geometric mean (geometric CV%) [1, 8]: 5,968 (20.0) ng×h/mL
AUC of metabolite relative to apremilast ([1]; plasma, day 5): ~ 1.7 fold
Cmax of metabolite relative to apremilast ([1]; plasma, day 5): ~ 1.25 fold
estimated slope (SE) of ΔΔQTcI vs plasma concentration [3]: –0.0006 (0.0028)
Compound: O-des-methyl-[S]-CC-10004-glucuronide [M12]
relationship between changes in QT/QTc interval and plasma concentration [3]: No trend or relationship
pharmacological activity ([7]; glucuronide metabolites): not pharmacologically active
half-life ([7]; humans): ~ 16 hours
metabolite to total radioactivity ratio ([7]; humans): ~ 39%
